{"source": "patent US10265383B2", "about": "“Treatment of radiation injury using ghrelin” (priority 2014, dated 2019)", "key": {"serum albumin": {"tested_on": "serum albumin", "experiment": "Serum albumin level after WBI", "format": "in vivo, rat", "settings": "Day 7 after 10 Gy WBI; WBI decreased it by 19%", "description": "(§1) Animal model of whole body irradiation. Rats were exposed to whole body irradiation (WBI) of 10 Gray (Gy) using a Gammacell® 1000 Irradiator (Atomic Energy of Canada Ltd) [radiation source: Cesium-137 (^137Cs)] delivered at a dose rate of about 2.5 GY/min. The animals were sedated with intra-peritoneal pentobarbital (40 mg/kg BW) prior to irradiation. During radiation, the container rotated continuously in front of the radiation source for even exposure. The animals were then returned to their cages, and food and water were provided.\nBlood and Tissue Collection after WBI. Rats exposed to 10 Gy WBI were treated with 20 nmol/rat human ghrelin once a day for 6 days starting at 24 h after radiation. At the 7th day, rats were euthanized, and blood, liver and the small intestine were removed under sterile conditions. The blood was allowed to clot and following centrifugation, the serum was transferred into pyrogenic free sterile tubes, and stored at −80° C. until further analysis. Liver (0.25 g) was snap-frozen in liquid nitrogen and stored at −80° C. for subsequent bacterial translocation analysis. […]\nSerum glucose and albumin levels. Serum levels of glucose and albumin were determined using Liquid Glucose Hexokinase Reagent Set and Albumin Reagent Set (Pointe Scientific, Inc.) respectively according to manufacturer's instructions."}, "rat ileum": {"tested_on": "rat ileum", "experiment": "Gut permeability, ex-vivo isolated everted ileal sac (FD4 clearance)", "format": "in vivo", "settings": "Day 7 after 10 Gy WBI, 20 nmol/rat for 6 days from 24 h", "description": "as §1\nBlood and Tissue Collection after WBI. Rats exposed to 10 Gy WBI were treated with 20 nmol/rat human ghrelin once a day for 6 days starting at 24 h after radiation. […]\nGut Permeability. Small intestinal mucosal barrier function was assessed by using the ex-vivo isolated everted ileal sac as originally described by Wattanasirichaigoon et al. in 1999 [26] and used by others. […] The length and the diameter of the gut sac were then measured. […] Fluorescence measurements were made with a CYTOFLUOR 2 fluorescence plate reader (PerSeptive Biosystems, Framingham, Mass.) at an excitation wavelength of 480 nm and an emission wavelength of 520 nm. Gut permeability was expressed as the mucosal-to-serosal clearance of FD4 as described in detail by Wattanasirichaigoon et al.. […]"}, "ICAM-1": {"tested_on": "ICAM-1", "experiment": "Jejunal ICAM-1 mRNA expression by real time PCR", "format": "in vivo, rat", "settings": "jejunum, Day 7 after 10 Gy WBI; vehicle increased by 69%", "description": "as §1\nBlood and Tissue Collection after WBI. Rats exposed to 10 Gy WBI were treated with 20 nmol/rat human ghrelin once a day for 6 days starting at 24 h after radiation. At the 7th day, rats were euthanized, and blood, liver and the small intestine were removed under sterile conditions. The blood was allowed to clot and following centrifugation, the serum was transferred into pyrogenic free sterile tubes, and stored at −80° C. until further analysis. Liver (0.25 g) was snap-frozen in liquid nitrogen and stored at −80° C. for subsequent bacterial translocation analysis. Small intestine, 10-15 cm of the ileum, was harvested for gut permeability studies, 10 cm of jejunum was collected for histopathology, and the remaining 10 cm jejunal segment each was collected for RNA and protein analyses.\nTotal RNA extraction and real time PCR. […]"}}, "note": "Where no end group is shown, it is not given here. The star is where a group is joined. Octanoyl = CCCCCCCC(=O)*", "data": [{"substance": "ghrelin (GSS(Octanoyl)FLSPEHQRVQQRKESKKPPAKLQPR; listed as Homo sapiens) [human ghrelin]", "values": [{"measurement": "serum albumin levels", "setting": "serum albumin", "result": "restored to sham values"}, {"measurement": "gut permeability, reduction from Vehicle", "setting": "rat ileum", "result": 38, "unit": "%"}, {"measurement": "ICAM-1 mRNA expression, inhibition from the vehicle levels", "setting": "ICAM-1", "result": 51, "unit": "%"}]}]}
